Data as given in PubChem BioAssay AID1259407 (Chemical Carcinogenesis Research Information System (CCRIS), 2018).
Activity calls are given as the source filed them. The rule behind the calls is not given here.

Test system: CCRIS mutagenicity, Ames/micronucleus/aberration tests
Assay: CCRIS mutagenicity studies

Measured: mutagenic call

CCOCC(O)COc1ccc(NC(=O)CC[S+](C)C)cc1 (stereo not given)
inactive: Test System: AMES SALMONELLA TYPHIMURIUM, Strain/Indicator: TA98, Metabolic Activation: NONE, Method: STANDARD PLATE inactive; negative | Test System: AMES SALMONELLA TYPHIMURIUM, Strain/Indicator: TA98, Metabolic Activation: RAT, LIVER, S-9, Method: STANDARD PLATE inactive; negative | Test System: AMES SALMONELLA TYPHIMURIUM, Strain/Indicator: TA100, Metabolic Activation: NONE, Method: STANDARD PLATE inactive; negative | Test System: AMES SALMONELLA TYPHIMURIUM, Strain/Indicator: TA100, Metabolic Activation: RAT, LIVER, S-9, Method: STANDARD PLATE inactive; negative | Test System: AMES SALMONELLA TYPHIMURIUM, Strain/Indicator: TA1535, Metabolic Activation: NONE, Method: STANDARD PLATE inactive; negative | Test System: AMES SALMONELLA TYPHIMURIUM, Strain/Indicator: TA1535, Metabolic Activation: RAT, LIVER, S-9, Method: STANDARD PLATE inactive; negative | Test System: AMES SALMONELLA TYPHIMURIUM, Strain/Indicator: TA1537, Metabolic Activation: NONE, Method: STANDARD PLATE inactive; negative | Test System: AMES SALMONELLA TYPHIMURIUM, Strain/Indicator: TA1537, Metabolic Activation: RAT, LIVER, S-9, Method: STANDARD PLATE inactive; negative | Test System: AMES SALMONELLA TYPHIMURIUM, Strain/Indicator: TA1538, Metabolic Activation: NONE, Method: STANDARD PLATE inactive; negative | Test System: AMES SALMONELLA TYPHIMURIUM, Strain/Indicator: TA1538, Metabolic Activation: RAT, LIVER, S-9, Method: STANDARD PLATE inactive; negative | Test System: E. COLI, Strain/Indicator: WP2, Metabolic Activation: NONE, Method: STANDARD PLATE inactive; negative | Test System: E. COLI, Strain/Indicator: WP2, Metabolic Activation: RAT, LIVER, S-9, Method: STANDARD PLATE inactive; negative | Test System: E. COLI, Strain/Indicator: WP2 UVRA, Metabolic Activation: NONE, Method: STANDARD PLATE inactive; negative | Test System: E. COLI, Strain/Indicator: WP2 UVRA, Metabolic Activation: RAT, LIVER, S-9, Method: STANDARD PLATE inactive; negative

OC[C@H]1OC(n2cnc3c2ncn2ccnc32)C[C@@H]1O (stereo not given in full)
inactive: Test System: AMES SALMONELLA TYPHIMURIUM, Strain/Indicator: TA100, Metabolic Activation: NONE, Method: PREINCUBATION inactive; negative
